The values that follow come from patent publication US9926282B2, “Phthalazinones and isoquinolinones as rock inhibitors” (BRISTOL-MYERS SQUIBB COMPANY, priority 2013, dated 2018).

One test addresses ROCK2 (Homo sapiens (Human), UniProt O75116). The experiment in a line: ROCK assay (LABCHIP peptide phosphorylation), ROCK2. The format is biochemical. The following applies: 5 μM ATP, 1.5 μM peptide substrate.
In a further test the target is ROCK1 (Homo sapiens (Human), UniProt Q13464). As to the kind of experiment: ROCK assay (LABCHIP peptide phosphorylation), ROCK1. Type of test: biochemical. The following applies: 5 μM ATP, 1.5 μM peptide substrate; read-out: ROCK1 IC50.
Sequence of ROCK1 (Q13464 whole entry, species assumed): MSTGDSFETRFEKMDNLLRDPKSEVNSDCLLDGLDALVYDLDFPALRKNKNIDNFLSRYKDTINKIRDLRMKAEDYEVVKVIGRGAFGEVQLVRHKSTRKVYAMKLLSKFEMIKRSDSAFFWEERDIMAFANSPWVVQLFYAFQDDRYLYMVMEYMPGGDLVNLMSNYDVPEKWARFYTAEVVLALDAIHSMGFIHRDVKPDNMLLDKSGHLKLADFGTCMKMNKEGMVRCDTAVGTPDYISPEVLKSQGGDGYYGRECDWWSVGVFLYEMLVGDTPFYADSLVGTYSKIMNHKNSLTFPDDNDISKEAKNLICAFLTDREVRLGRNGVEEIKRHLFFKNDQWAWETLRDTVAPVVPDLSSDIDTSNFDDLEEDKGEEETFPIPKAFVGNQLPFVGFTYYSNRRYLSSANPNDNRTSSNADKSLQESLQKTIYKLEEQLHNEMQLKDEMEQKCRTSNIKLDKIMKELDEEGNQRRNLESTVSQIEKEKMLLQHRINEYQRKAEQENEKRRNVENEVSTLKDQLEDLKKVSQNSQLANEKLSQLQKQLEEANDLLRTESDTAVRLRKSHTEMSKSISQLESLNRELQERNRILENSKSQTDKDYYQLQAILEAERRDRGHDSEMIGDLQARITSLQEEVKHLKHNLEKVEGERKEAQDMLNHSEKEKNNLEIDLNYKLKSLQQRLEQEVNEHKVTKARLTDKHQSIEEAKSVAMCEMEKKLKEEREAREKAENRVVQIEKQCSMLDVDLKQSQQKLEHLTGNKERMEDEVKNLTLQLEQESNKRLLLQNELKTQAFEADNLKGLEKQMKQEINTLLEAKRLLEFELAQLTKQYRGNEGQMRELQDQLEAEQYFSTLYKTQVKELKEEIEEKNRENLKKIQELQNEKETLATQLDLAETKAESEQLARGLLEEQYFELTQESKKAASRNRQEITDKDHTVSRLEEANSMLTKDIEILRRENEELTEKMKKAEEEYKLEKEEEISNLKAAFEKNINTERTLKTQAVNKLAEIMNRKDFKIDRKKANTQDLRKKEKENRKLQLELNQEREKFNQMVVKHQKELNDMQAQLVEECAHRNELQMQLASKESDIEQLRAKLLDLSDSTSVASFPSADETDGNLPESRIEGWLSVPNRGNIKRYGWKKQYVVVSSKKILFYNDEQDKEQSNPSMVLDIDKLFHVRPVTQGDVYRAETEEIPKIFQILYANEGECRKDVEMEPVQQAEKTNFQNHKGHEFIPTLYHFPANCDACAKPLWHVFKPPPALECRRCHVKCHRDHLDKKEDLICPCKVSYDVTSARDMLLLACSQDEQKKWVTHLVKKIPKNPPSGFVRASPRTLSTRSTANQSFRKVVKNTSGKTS

Sequence of ROCK2 (O75116 whole entry, species assumed): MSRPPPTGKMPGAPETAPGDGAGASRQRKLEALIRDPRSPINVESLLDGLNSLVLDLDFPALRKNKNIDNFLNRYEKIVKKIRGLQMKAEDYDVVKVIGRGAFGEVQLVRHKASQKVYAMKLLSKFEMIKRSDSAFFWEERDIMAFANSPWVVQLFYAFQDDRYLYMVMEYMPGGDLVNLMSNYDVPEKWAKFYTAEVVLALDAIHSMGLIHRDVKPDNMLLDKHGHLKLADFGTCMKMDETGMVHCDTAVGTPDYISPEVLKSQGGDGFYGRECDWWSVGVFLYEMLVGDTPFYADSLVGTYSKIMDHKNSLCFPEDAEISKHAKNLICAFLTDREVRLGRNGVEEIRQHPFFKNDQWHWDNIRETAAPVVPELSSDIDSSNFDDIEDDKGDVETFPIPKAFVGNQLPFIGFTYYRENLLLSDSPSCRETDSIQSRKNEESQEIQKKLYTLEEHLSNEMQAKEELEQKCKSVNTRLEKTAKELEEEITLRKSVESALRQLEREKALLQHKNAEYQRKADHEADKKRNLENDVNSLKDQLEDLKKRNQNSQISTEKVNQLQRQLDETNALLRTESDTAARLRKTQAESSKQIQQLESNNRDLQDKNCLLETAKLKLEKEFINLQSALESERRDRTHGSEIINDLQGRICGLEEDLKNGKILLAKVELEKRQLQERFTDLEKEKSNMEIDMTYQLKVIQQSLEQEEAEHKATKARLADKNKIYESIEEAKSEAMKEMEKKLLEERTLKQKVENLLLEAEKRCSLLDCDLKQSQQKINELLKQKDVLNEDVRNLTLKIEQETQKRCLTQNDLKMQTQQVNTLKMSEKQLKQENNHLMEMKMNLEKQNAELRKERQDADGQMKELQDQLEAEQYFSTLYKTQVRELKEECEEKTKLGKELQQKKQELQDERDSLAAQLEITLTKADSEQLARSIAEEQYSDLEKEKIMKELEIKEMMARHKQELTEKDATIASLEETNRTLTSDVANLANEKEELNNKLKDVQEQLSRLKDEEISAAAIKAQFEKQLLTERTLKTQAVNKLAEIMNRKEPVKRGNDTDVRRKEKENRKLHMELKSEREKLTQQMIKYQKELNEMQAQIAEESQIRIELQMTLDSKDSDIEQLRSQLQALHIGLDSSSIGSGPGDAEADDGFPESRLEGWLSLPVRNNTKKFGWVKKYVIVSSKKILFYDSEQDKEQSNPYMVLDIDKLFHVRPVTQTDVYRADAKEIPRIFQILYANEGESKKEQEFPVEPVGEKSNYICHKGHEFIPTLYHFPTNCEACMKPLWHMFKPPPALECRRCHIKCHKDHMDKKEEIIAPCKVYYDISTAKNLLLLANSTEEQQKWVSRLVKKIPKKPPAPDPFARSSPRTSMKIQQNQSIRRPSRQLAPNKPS

A word on the IC50: it is the point on the concentration scale where inhibition reaches its midpoint. `Cc1cc(NC(=O)c2nn(CC3CCN(CCCCO)CC3)c3ccccc23)ccc1-c1n[nH]c(=O)c2ccccc12` [Example 321, 1-((1-(4-Hydroxybutyl)piperidin-4-yl)methyl)-N-(3-methyl-4-(4-oxo-3,4-dihydrophthalazin-1-yl)phenyl)-1H-indazole-3-carboxamide]: the figures for the IC50 on ROCK2 and on ROCK1 were 0.101 to 1 µM and 0.0001 to 0.1 µM, respectively.

Regarding `COc1cc(C)c2c(c1)CCN2C(=O)Cc1ccc(-c2n[nH]c(=O)c3ccccc23)cc1` [Example 252, 4-(4-(2-(5-Methoxy-7-methylindolin-1-yl)-2-oxoethyl)phenyl)phthalazin-1(2H)-one], the IC50 was in the range of 0.101 to 1 µM against ROCK2 and 1 to 50 µM at ROCK1.

`O=C(Nc1ccc(-c2n[nH]c(=O)c3ccccc23)cc1)c1cc2cc(Cl)cnc2[nH]1` [Example 119, 5-chloro-N-[4-(4-oxo-3,4-dihydrophthalazin-1-yl)phenyl]-1H-pyrrolo[2,3-b]pyridine-2-carboxamide]: the IC50 was in the range of 0.0001 to 0.1 µM against ROCK2 and 0.101 to 1 µM on ROCK1.

In the case of `CC(C(=O)N1Cc2ccccc2C1)c1ccc(-c2n[nH]c(=O)c3ccccc23)cc1` (centres unmarked) [Example 43, 4-(4-(1-(Isoindolin-2-yl)-1-oxopropan-2-yl)phenyl)phthalazin-1(2H)-one], the half-inhibitory concentration (IC50) was in the range of 0.101 to 1 µM against ROCK2 and 1 to 50 µM at ROCK1.

On to `Cc1cc(NC(=O)c2cc(C(C)(C)C)n(C)n2)ccc1-c1n[nH]c(=O)c2ccccc12` [Example 395, 5-(tert-Butyl)-1-methyl-N-(3-methyl-4-(4-oxo-3,4-dihydrophthalazin-1-yl)phenyl)-1H-pyrazole-3-carboxamide], for which the 50% inhibitory concentration (IC50) against ROCK2 and on ROCK1 was 0.0001 to 0.1 µM each time.

Turning to `O=C(Nc1ccc(-c2n[nH]c(=O)c3ccccc23)cc1)c1cn2ccncc2n1` [Example 133, N-[4-(4-oxo-3,4-dihydrophthalazin-1-yl)phenyl]imidazo[1,2-a]pyrazine-2-carboxamide], the results for the IC50 against ROCK2 and at ROCK1 were 0.0001 to 0.1 µM and 0.101 to 1 µM, respectively.

`O=c1[nH]nc(-c2ccc(Nc3nc(-c4ccccc4)cs3)cc2)c2ccccc12` [Example 74, 4-(4-((4-Phenylthiazol-2-yl)amino)phenyl)phthalazin-1(2H)-one]: the IC50 at ROCK2 fell in the range of 0.0001 to 0.1 µM; on ROCK1 it was 1 to 50 µM.

`Cn1ncc(C(=O)Nc2ccc(-c3n[nH]c(=O)c4ccccc34)cc2)c1-c1ccccc1` [Example 192, 1-methyl-N-[4-(4-oxo-3,4-dihydrophthalazin-1-yl)phenyl]-5-phenyl-1H-pyrazole-4-carboxamide]: the results for the IC50 on ROCK2 and at ROCK1 were 0.0001 to 0.1 µM and 0.101 to 1 µM, respectively.

On to `CC(C)Oc1ccc2c(c1)CCN2C(=O)Cc1ccc(-c2n[nH]c(=O)c3ccccc23)cc1` [Example 273, 4-(4-{2-oxo-2-[5-(propan-2-yloxy)-2,3-dihydro-1H-indol-1-yl]ethyl}phenyl)-1,2-dihydrophthalazin-1-one], for which the IC50 was in the range of 0.0001 to 0.1 µM against ROCK2 and 0.101 to 1 µM on ROCK1.

In the case of `O=C(Cn1nc(C(=O)Nc2ccc(-c3n[nH]c(=O)c4ccccc34)cc2)c2ccccc21)NCC1(O)CCC1` [Example 335, 1-(2-(((1-Hydroxycyclobutyl)methyl)amino)-2-oxoethyl)-N-(4-(4-oxo-3,4-dihydrophthalazin-1-yl)phenyl)-1H-indazole-3-carboxamide], the IC50 against ROCK2 and on ROCK1 was 0.0001 to 0.1 µM each time.

As to `CCOc1ccc2c(c1)N(C(=O)Cc1ccc(-c3c[nH]c(=O)c4ccccc34)cc1)CC2` [Example 254, 4-(4-(2-(6-Ethoxyindolin-1-yl)-2-oxoethyl)phenyl)isoquinolin-1(2H)-one], the IC50 was 0.0001 to 0.1 µM against ROCK2 and 0.101 to 1 µM at ROCK1.

Regarding `COC[C@@H]1CCCN1C(=O)Cc1ccc(-c2n[nH]c(=O)c3ccccc23)cc1` [Example 13, 4-(4-{2-[(2S)-2-(methoxymethyl)pyrrolidin-1-yl]-2-oxoethyl}phenyl)-1,2-dihydrophthalazin-1-one], the IC50 against ROCK2 and at ROCK1 was 1 to 50 µM in each case.

In the case of `O=C(Nc1ccc(-c2n[nH]c(=O)c3ccccc23)cc1)c1cc2ccccc2n1Cc1ccccc1` [Example 136, 1-benzyl-N-[4-(4-oxo-3,4-dihydrophthalazin-1-yl)phenyl]-1H-indole-2-carboxamide], the half-inhibitory concentration (IC50) against ROCK2 was in the range of 0.0001 to 0.1 µM; at ROCK1 it was 1 to 50 µM.

As to `Cc1cccc(-n2cnc(C(=O)Nc3ccc(-c4n[nH]c(=O)c5ccccc45)cc3)c2)c1` [Example 195, 1-(3-methylphenyl)-N-[4-(4-oxo-3,4-dihydrophthalazin-1-yl)phenyl]-1H-imidazole-4-carboxamide], the IC50 against ROCK2 and at ROCK1 was 0.0001 to 0.1 µM each time.

For the compound `CN(C)CCOc1ccc2c(C(=O)Nc3ccc(-c4n[nH]c(=O)c5ccccc45)cc3)cnn2c1` [Example 177, 6-[2-(dimethylamino)ethoxy]-N-[4-(4-oxo-3,4-dihydrophthalazin-1-yl)phenyl]pyrazolo[1,5-a]pyridine-3-carboxamide], the IC50 against ROCK2 and on ROCK1 was 0.0001 to 0.1 µM each time.

For the compound `CCOc1cc(NC(=O)c2nn(CC3CCOC3)c3ccccc23)ccc1-c1n[nH]c(=O)c2ccccc12` (centres unmarked) [Example 347, N-(3-Ethoxy-4-(4-oxo-3,4-dihydrophthalazin-1-yl)phenyl)-1-((tetrahydrofuran-3-yl)methyl)-1H-indazole-3-carboxamide], the values for the IC50 against ROCK2 and at ROCK1 were 0.101 to 1 µM and 1 to 50 µM, respectively.

For the compound `O=C(Cc1ccc(-c2n[nH]c(=O)c3ccccc23)cc1)Nc1nc2ccccc2o1` [Example 10, N-(1,3-benzoxazol-2-yl)-2-[4-(4-oxo-3,4-dihydrophthalazin-1-yl)phenyl]acetamide], the IC50 against ROCK2 fell in the range of 0.0001 to 0.1 µM; on ROCK1, 0.101 to 1 µM.

In the case of `Cc1ccn2c(C(=O)Nc3ccc(-c4n[nH]c(=O)c5ccccc45)cc3)c(C)nc2c1` [Example 139, 2,7-dimethyl-N-[4-(4-oxo-3,4-dihydrophthalazin-1-yl)phenyl]imidazo[1,2-a]pyridine-3-carboxamide], the IC50 against ROCK2 and at ROCK1 was 0.0001 to 0.1 µM throughout.

As to `Cn1nc(C(=O)Nc2ccc(-c3n[nH]c(=O)c4ccccc34)cc2)cc1-c1ccccc1` [Example 207, 1-methyl-N-[4-(4-oxo-3,4-dihydrophthalazin-1-yl)phenyl]-5-phenyl-1H-pyrazole-3-carboxamide], the IC50 on ROCK2 and at ROCK1 was 0.0001 to 0.1 µM each time.

As to `O=C(Cc1ccc(-c2n[nH]c(=O)c3ccccc23)cc1)Nc1nc2ccccc2[nH]1` [Example 9, N-(1H-1,3-benzodiazol-2-yl)-2-[4-(4-oxo-3,4-dihydrophthalazin-1-yl)phenyl]acetamide], the figures for the IC50 on ROCK2 and on ROCK1 were 0.0001 to 0.1 µM and 1 to 50 µM, respectively.

On to `O=C(Nc1ccc(-c2n[nH]c(=O)c3ccccc23)cc1)c1ccc(N2CCCCC2)cc1` [Example 61], for which the IC50 at ROCK2 and at ROCK1 was 0.0001 to 0.1 µM throughout.

Turning to `CC1(Cn2nc(C(=O)Nc3ccc(-c4n[nH]c(=O)c5ccccc45)cc3)c3ccccc32)COC1` [Example 145, 1-[(3-methyloxetan-3-yl)methyl]-N-[4-(4-oxo-3,4-dihydrophthalazin-1-yl)phenyl]-1H-indazole-3-carboxamide], the IC50 on ROCK2 and on ROCK1 was 0.0001 to 0.1 µM throughout.

Take `O=C(Cc1ccc(-c2n[nH]c(=O)c3ccccc23)cc1)Nc1ccccc1` [Example 20, 2-[4-(4-oxo-3,4-dihydrophthalazin-1-yl)phenyl]-N-phenylacetamide]: the IC50 against ROCK2 lay in the range of 0.101 to 1 µM; at ROCK1, 1 to 50 µM.

As for `O=C(Cc1ccc(-c2n[nH]c(=O)c3ccccc23)cc1)N1CCc2ccc(OCc3ccncc3)cc21` [Example 272, 4-(4-{2-oxo-2-[6-(pyridin-4-ylmethoxy)-2,3-dihydro-1H-indol-1-yl]ethyl}phenyl)-1,2-dihydrophthalazin-1-one], the IC50 on ROCK2 and at ROCK1 was 0.0001 to 0.1 µM throughout.

For `COc1ccc2c(=O)[nH]cc(-c3ccc(CC(=O)N4CCc5ccc(OCC(C)(C)O)cc54)cc3)c2c1` [Example 289, 4-(4-(2-(6-(2-Hydroxy-2-methylpropoxy)indolin-1-yl)-2-oxoethyl)phenyl)-6-methoxyisoquinolin-1(2H)-one], the IC50 at ROCK2 and at ROCK1 was 0.0001 to 0.1 µM in each case.

As to `O=C(Nc1ccc(-c2n[nH]c(=O)c3ccccc23)cc1)c1cnn(CCC(F)(F)F)c1` [Example 398, N-(4-(4-Oxo-3,4-dihydrophthalazin-1-yl)phenyl)-1-(3,3,3-trifluoropropyl)-1H-pyrazole-4-carboxamide], the IC50 against ROCK2 lay in the range of 0.0001 to 0.1 µM; on ROCK1, 0.101 to 1 µM.

On to `O=C(Nc1ccc(-c2n[nH]c(=O)c3ccccc23)cc1)c1n[nH]c2ncccc12` [Example 110, N-[4-(4-oxo-3,4-dihydrophthalazin-1-yl)phenyl]-1H-pyrazolo[3,4-b]pyridine-3-carboxamide], for which the IC50 at ROCK2 and on ROCK1 was 0.0001 to 0.1 µM in each case.

As to `CC(C)n1nc(C(=O)Nc2ccc(-c3n[nH]c(=O)c4ccccc34)c(CO)c2)c2ccccc21` [Example 364, N-(3-(Hydroxymethyl)-4-(4-oxo-3,4-dihydrophthalazin-1-yl)phenyl)-1-isopropyl-1H-indazole-3-carboxamide], the half-inhibitory concentration (IC50) was 0.0001 to 0.1 µM against ROCK2 and 0.101 to 1 µM on ROCK1.

Take `COc1cccc(-n2cc(C(=O)Nc3ccc(-c4n[nH]c(=O)c5ccccc45)cc3)cn2)c1` [Example 203, 1-(3-methoxyphenyl)-N-[4-(4-oxo-3,4-dihydrophthalazin-1-yl)phenyl]-1H-pyrazole-4-carboxamide]: the concentration for half-maximal inhibition (IC50) against ROCK2 lay in the range of 0.0001 to 0.1 µM; on ROCK1 it was 0.101 to 1 µM.

Consider `CC(C)n1nc(C(=O)Nc2ccc(-c3n[nH]c(=O)c4ccccc34)cc2)c2ccccc21` [Example 132, N-[4-(4-oxo-3,4-dihydrophthalazin-1-yl)phenyl]-1-(propan-2-yl)-1H-indazole-3-carboxamide], for which the IC50 at ROCK2 and on ROCK1 was 0.0001 to 0.1 µM in each case.

For `COc1ccc2c(c1)N(C(=O)Nc1ccc(-c3c[nH]c(=O)c4cc(OC)c(OC)cc34)cc1)CC2` [Example 257, N-(4-(6,7-Dimethoxy-1-oxo-1,2-dihydroisoquinolin-4-yl)phenyl)-6-methoxyindoline-1-carboxamide], the IC50 lay in the range of 0.0001 to 0.1 µM against ROCK2 and 1 to 50 µM on ROCK1.
